Legend:
Assay type in all cases: in vivo
[1] = test system: giant foxtail (Setaria faberii); assay: Test A preemergence; conditions: Preemergence; for Plant response rating, Foxtail, Giant: 125 g ai/ha, visual injury after approximately 10 d, 0 to 100 scale where 0 is no effect and 100 is complete control; for Foxtail, Giant plant response rating (0 to 100 scale, 0 is no effect, 100 is complete control): 500 g ai/ha, visual injury approx. 10 d
Procedure, shortened: (§1)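 In a loam soil and sand blend, planted seeds got a preemergence directed soil spray, and young plants at the one- to two-leaf stage, 2–10 cm high, got a postemergence application; ~10 d greenhouse hold; injury rated visually, 0 = none, 100 = complete control.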

Kochia (Kochia scoparia) [2] = assay: Test A preemergence; conditions: Preemergence; for Plant response rating, Kochia: 125 g ai/ha, visual injury after approximately 10 d, 0 to 100 scale where 0 is no effect and 100 is complete control; for Kochia plant response rating (0 to 100 scale, 0 is no effect, 100 is complete control): 500 g ai/ha, visual injury approx. 10 d
Procedure, shortened: as §1

[3] = test system: pigweed (Amaranthus retroflexus); assay: Test A preemergence; conditions: Preemergence; for Plant response rating, Pigweed: 125 g ai/ha, visual injury after approximately 10 d, 0 to 100 scale where 0 is no effect and 100 is complete control; for Pigweed plant response rating (0 to 100 scale, 0 is no effect, 100 is complete control): 500 g ai/ha, visual injury approx. 10 d
[4] = test system: ragweed (common ragweed, Ambrosia elatior); assay: Test A preemergence; conditions: Preemergence; for Plant response rating, Ragweed: 125 g ai/ha, visual injury after approximately 10 d, 0 to 100 scale where 0 is no effect and 100 is complete control; for Ragweed plant response rating (0 to 100 scale, 0 is no effect, 100 is complete control): 500 g ai/ha, visual injury approx. 10 d
Procedure, shortened: as §1

[5] = test system: ryegrass, Italian (Italian ryegrass, Lolium multiflorum); assay: Test A preemergence; conditions: Preemergence; for Plant response rating, Ryegrass, Italian: 125 g ai/ha, visual injury after approximately 10 d, 0 to 100 scale where 0 is no effect and 100 is complete control; for Ryegrass, Italian plant response rating (0 to 100 scale, 0 is no effect, 100 is complete control): 500 g ai/ha, visual injury approx. 10 d
Procedure, shortened: as §1

[6] = test system: barnyardgrass (Echinochloa crus-galli); assay: Test A preemergence; conditions: Preemergence; for Plant response rating, Barnyardgrass: 125 g ai/ha, visual injury after approximately 10 d, 0 to 100 scale where 0 is no effect and 100 is complete control; for Barnyardgrass plant response rating (0 to 100 scale, 0 is no effect, 100 is complete control): 500 g ai/ha, visual injury approx. 10 d
Procedure, shortened: as §1

[7] = test system: giant foxtail (Setaria faberii); assay: Test A postemergence
Procedure, shortened: as §1

[8] = test system: Galium (catchweed bedstraw, Galium aparine); assay: Test A postemergence
Procedure, shortened: as §1

Kochia (Kochia scoparia) [9] = assay: Test A postemergence
Procedure, shortened: as §1

[10] = test system: pigweed (Amaranthus retroflexus); assay: Test A postemergence
Procedure, shortened: as §1

[11] = test system: wheat (Triticum aestivum); assay: Test A postemergence
Procedure, shortened: as §1

[12] = test system: ragweed (common ragweed, Ambrosia elatior); assay: Test A postemergence
Procedure, shortened: as §1

[13] = test system: blackgrass (Alopecurus myosuroides); assay: Test A postemergence
Procedure, shortened: as §1

corn (Zea mays) = assay: Test A postemergence
Procedure, shortened: as §1

[14] = test system: ryegrass, Italian (Italian ryegrass, Lolium multiflorum); assay: Test A postemergence
Procedure, shortened: as §1

[15] = test system: barnyardgrass (Echinochloa crus-galli); assay: Test A postemergence
Procedure, shortened: as §1

rice (Oryra sativa) = assay: Test B flooded paddy test; conditions: Flood, 250 g ai/ha; 0 to 100 scale where 0 is no effect and 100 is complete control; 13 to 15 d
Procedure, shortened: (§2)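 Flooding to 3 cm over soil accompanied treatment, which consisted of adding compound to the standing water around 2-leaf plants; depth was then maintained. Visual assessment versus controls followed at 13 to 15 d (scale 0–100, 0 meaning no effect).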

[16] = test system: sedge, umbrella (small-flower umbrella sedge, Cyperus difformis); assay: Test B flooded paddy test; conditions: Flood, 250 g ai/ha; 0 to 100 scale where 0 is no effect and 100 is complete control; 13 to 15 d
Procedure, shortened: as §2

[17] = test system: ducksalad (Heteranthera limosa); assay: Test B flooded paddy test; conditions: Flood, 250 g ai/ha; 0 to 100 scale where 0 is no effect and 100 is complete control; 13 to 15 d
Procedure, shortened: as §2

[18] = test system: barnyardgrass (Echinochloa crus-galli); assay: Test B flooded paddy test; conditions: Flood, 250 g ai/ha; 0 to 100 scale where 0 is no effect and 100 is complete control; 13 to 15 d
Procedure, shortened: as §2

[19] = 125 g ai/ha, postemergence, visual injury rating on 0 to 100 scale (0 no effect, 100 complete control), approx. 10 d
[20] = Postemergence, 500 g ai/ha, 0 to 100 scale where 0 is no effect and 100 is complete control
[21] = 125 g ai/ha, postemergence, visual rating after approx. 10 d, 0 to 100 scale (0 no effect, 100 complete control)

## O=C(Nc1ccccc1F)C1C(=O)N(CC=CBr)CC1c1cccc(C(F)(F)F)c1 (stereo not drawn) [Compound 484]
[1]
  Plant response rating, Foxtail, Giant: 50
  Foxtail, Giant plant response rating (0 to 100 scale, 0 is no effect, 100 is complete control): 90
Kochia (Kochia scoparia) [2]
  Plant response rating, Kochia: 0
  Kochia plant response rating (0 to 100 scale, 0 is no effect, 100 is complete control): 0
[3]
  Plant response rating, Pigweed: 0
  Pigweed plant response rating (0 to 100 scale, 0 is no effect, 100 is complete control): 0
[4]
  Plant response rating, Ragweed: 0
  Ragweed plant response rating (0 to 100 scale, 0 is no effect, 100 is complete control): 0
[5]
  Plant response rating, Ryegrass, Italian: 0
  Ryegrass, Italian plant response rating (0 to 100 scale, 0 is no effect, 100 is complete control): 0
[6]
  Plant response rating, Barnyardgrass: 0
  Barnyardgrass plant response rating (0 to 100 scale, 0 is no effect, 100 is complete control): 40
[7]; [19]
  Foxtail, Giant plant response rating: 0
[7]; [20]
  Plant response rating, Foxtail, Giant: 40
[8]; [19]
  Galium plant response rating: 0
[8]; [20]
  Plant response rating, Galium: 0
Kochia (Kochia scoparia) [9]; [19]
  Kochia plant response rating: 0
Kochia (Kochia scoparia) [9]; [20]
  Plant response rating, Kochia: 0
[10]; [19]
  Pigweed plant response rating: 0
[10]; [20]
  Plant response rating, Pigweed: 0
[11]; [19]
  Wheat plant response rating: 0
[11]; [20]
  Plant response rating, Wheat: 0
[12]; [19]
  Ragweed plant response rating: 0
[12]; [20]
  Plant response rating, Ragweed: 0
[13]; [19]
  Blackgrass plant response rating: 0
[13]; [20]
  Plant response rating, Blackgrass: 0
Corn (Zea mays); [19]
  Corn plant response rating: 0
Corn (Zea mays); [20]
  Plant response rating, Corn: 0
[14]; [19]
  Ryegrass, Italian plant response rating: 0
[14]; [20]
  Plant response rating, Ryegrass, Italian: 0
[15]; [19]
  Barnyardgrass plant response rating: 0
[15]; [20]
  Plant response rating, Barnyardgrass: 50
Rice (Oryra sativa)
  Plant response rating, Rice: 0
[16]
  Plant response rating, Sedge, Umbrella: 0
[17]
  Plant response rating, Ducksalad: 0
[18]
  Plant response rating, Barnyardgrass: 0

## O=C1NCC(c2cc(C(F)(F)F)cc(C(F)(F)F)c2)C1C(=O)Nc1ccc(F)cc1F (stereo not drawn) [Compound 589]
[1]
  Plant response rating, Foxtail, Giant: 80
  Foxtail, Giant plant response rating (0 to 100 scale, 0 is no effect, 100 is complete control): 90
Kochia (Kochia scoparia) [2]
  Plant response rating, Kochia: 0
  Kochia plant response rating (0 to 100 scale, 0 is no effect, 100 is complete control): 0
[3]
  Plant response rating, Pigweed: 0
  Pigweed plant response rating (0 to 100 scale, 0 is no effect, 100 is complete control): 0
[4]
  Plant response rating, Ragweed: 0
  Ragweed plant response rating (0 to 100 scale, 0 is no effect, 100 is complete control): 0
[5]
  Plant response rating, Ryegrass, Italian: 0
  Ryegrass, Italian plant response rating (0 to 100 scale, 0 is no effect, 100 is complete control): 40
[6]
  Plant response rating, Barnyardgrass: 80
  Barnyardgrass plant response rating (0 to 100 scale, 0 is no effect, 100 is complete control): 90
[7]; [21]
  Plant response rating, Foxtail, Giant: 80
[7]; [20]
  Plant response rating, Foxtail, Giant: 80
[8]; [21]
  Plant response rating, Galium: 0
[8]; [20]
  Plant response rating, Galium: 0
Kochia (Kochia scoparia) [9]; [21]
  Plant response rating, Kochia: 0
Kochia (Kochia scoparia) [9]; [20]
  Plant response rating, Kochia: 0
[10]; [21]
  Plant response rating, Pigweed: 0
[10]; [20]
  Plant response rating, Pigweed: 0
[11]; [21]
  Plant response rating, Wheat: 0
[11]; [20]
  Plant response rating, Wheat: 50
[12]; [21]
  Plant response rating, Ragweed: 0
[12]; [20]
  Plant response rating, Ragweed: 0
[13]; [21]
  Plant response rating, Blackgrass: 20
[13]; [20]
  Plant response rating, Blackgrass: 40
Corn (Zea mays); [21]
  Plant response rating, Corn: 10
Corn (Zea mays); [20]
  Plant response rating, Corn: 60
[14]; [21]
  Plant response rating, Ryegrass, Italian: 20
[14]; [20]
  Plant response rating, Ryegrass, Italian: 40
[15]; [21]
  Plant response rating, Barnyardgrass: 60
[15]; [20]
  Plant response rating, Barnyardgrass: 80
Rice (Oryra sativa)
  Plant response rating, Rice: 20
[16]
  Plant response rating, Sedge, Umbrella: 0
[17]
  Plant response rating, Ducksalad: 70
[18]
  Plant response rating, Barnyardgrass: 60

— patent US12077503B2, “Substituted cyclic amides and their use as herbicides” (FMC CORPORATION, priority 2015, dated 2024)
